Assays:
[1] = target: T1, mu/kappa opioid heterodimers (Mus musculus, UniProt P33534+P42866); assay type: cell-based, murine
T1 construct: expressed in transfected cells

[2] = target: mu/delta opioid receptors (Mus musculus, UniProt P32300+P42866); settings: Mu/delta cells
[3] = target: T2, mu opioid receptor (Mus musculus, UniProt P42866); experiment: Ca2+ release, HEK-293 mu cells; assay type: cell-based, murine
T2 construct: expressed in transfected cells

[4] = tested on: mice; experiment: Radiant heat tail flick antinociception; assay type: in vivo, mouse
[5] = tested on: mice; experiment: Conditioned place preference (CPP)
[6] = tested on: mice; settings: i.c.v. morphine-infused mice; cited from earlier work
[7] = tested on: mice; settings: chronic i.c.v. morphine; cited from earlier work
[8] = target: kappa/delta opioid receptors (Mus musculus, UniProt P32300+P33534)
[9] = target: delta opioid receptor (Mus musculus, UniProt P32300); settings: Delta cells
Chain of delta opioid receptor (P32300 whole entry): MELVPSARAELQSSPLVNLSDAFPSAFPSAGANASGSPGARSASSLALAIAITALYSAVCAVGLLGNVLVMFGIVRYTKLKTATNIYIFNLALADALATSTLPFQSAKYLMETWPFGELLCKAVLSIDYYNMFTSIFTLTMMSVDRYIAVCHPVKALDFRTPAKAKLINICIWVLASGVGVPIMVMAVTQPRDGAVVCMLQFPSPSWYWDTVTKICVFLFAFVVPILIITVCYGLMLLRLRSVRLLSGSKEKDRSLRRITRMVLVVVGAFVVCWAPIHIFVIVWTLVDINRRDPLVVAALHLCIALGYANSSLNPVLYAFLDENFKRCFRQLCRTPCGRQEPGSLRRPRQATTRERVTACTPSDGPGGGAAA

Chain of mu/delta opioid receptors (P32300 whole entry): as above
Chain of mu/delta opioid receptors (P42866 whole entry): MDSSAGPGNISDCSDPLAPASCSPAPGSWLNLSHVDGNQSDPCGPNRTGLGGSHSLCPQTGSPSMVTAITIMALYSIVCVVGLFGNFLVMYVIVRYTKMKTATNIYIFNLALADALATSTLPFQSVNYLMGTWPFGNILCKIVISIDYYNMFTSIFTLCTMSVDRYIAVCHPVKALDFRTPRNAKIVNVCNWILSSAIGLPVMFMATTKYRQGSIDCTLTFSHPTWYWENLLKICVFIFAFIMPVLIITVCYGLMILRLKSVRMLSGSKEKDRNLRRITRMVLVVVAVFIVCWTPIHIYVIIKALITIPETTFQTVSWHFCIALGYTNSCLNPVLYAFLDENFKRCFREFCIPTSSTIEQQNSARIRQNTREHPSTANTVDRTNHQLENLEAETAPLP
T2 sequence (P42866 whole entry): as above
T1 sequence (P42866 whole entry): as above
T1 sequence (P33534 whole entry): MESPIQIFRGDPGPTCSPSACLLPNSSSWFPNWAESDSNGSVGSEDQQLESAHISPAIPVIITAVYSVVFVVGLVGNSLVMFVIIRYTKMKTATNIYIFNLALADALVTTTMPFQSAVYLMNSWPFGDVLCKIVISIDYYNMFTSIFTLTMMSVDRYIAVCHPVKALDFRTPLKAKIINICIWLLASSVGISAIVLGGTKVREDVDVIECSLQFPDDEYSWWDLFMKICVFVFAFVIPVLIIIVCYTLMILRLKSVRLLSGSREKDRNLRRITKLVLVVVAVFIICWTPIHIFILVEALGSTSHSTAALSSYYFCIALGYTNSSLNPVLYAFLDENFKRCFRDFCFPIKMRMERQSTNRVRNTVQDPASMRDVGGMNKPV
Chain of kappa/delta opioid receptors (P33534 whole entry): as above
Chain of kappa/delta opioid receptors (P32300 whole entry): as the sequence (P32300 whole entry) above

C[C@@H](NC(=O)[C@@H](N)Cc1ccc(O)cc1)C(=O)NCC(=O)N(C)[C@@H](Cc1ccccc1)C(=O)NCCO [DAMGO, reference compound]
AUCpeak (RFU X seconds), Ca2+ release [1]: 5562 ± 668 | AUCpeak (RFU X seconds), Ca2+ release [2]: 12054 ± 1281 RFU X seconds | AUCpeak (RFU X seconds), Ca2+ release [3]: 9989 ± 702 RFU X seconds

Oc1ccc2c3c1O[C@H]1c4[nH]c5ccccc5c4C[C@@]4(O)[C@@H](C2)N(CC2CC2)CC[C@]314 [NTI, naltrindole, reference compound]
peak time of antagonist effect [4]: 20 min

CN1CC[C@]23c4c5ccc(O)c4O[C@H]2[C@@H](O)C=C[C@H]3[C@H]1C5 [morphine, reference compound]
place preference ([5]; 1200 nmol/kg): strong place preference | place preference with naloxone ([5]; morphine 1200 nmol/kg plus naloxone 300 nmol/kg): can be blocked by naloxone | naloxone-induced withdrawal jumping, previous studies [6]: 100 jumps in 10 min | development of tolerance, previous studies, same protocol [7]: 6 fold | time of peak antinociception ([4]; i.v., preliminary studies, ICR mice): 15 min | ED50 (95% CI) ([4]; i.v., tail flick): 420 (378-469) nmol

Oc1ccc2c3c1O[C@H]1c4[nH]c5c(c4C[C@@]4(O)[C@@H](C2)N(CC2CC2)CC[C@]314)C[C@@]1(O)[C@H]2Cc3ccc(O)c4c3[C@@]1(CCN2CC1CC1)[C@H]5O4 [norBNI, norbinaltorphimine, reference compound]
peak time of antagonist effect [4]: 20 min

Cys2-Tyr3-Orn5-Pen7-amide [CTOP, reference compound]
peak time of antagonist effect [4]: 20 min

DPDPE
AUCpeak (RFU X seconds), Ca2+ release [8]: 10153 ± 1479 | AUCpeak (RFU X seconds), Ca2+ release [2]: 10504 ± 969 RFU X seconds | AUCpeak (RFU X seconds), Ca2+ release [9]: 8319 ± 1117 RFU X seconds
